These are literature values, as cited in US11089780B2, “Pendimethanlin microcapsules with a shell made of tetramethylxylylene diisocyanate and a polyamine with at least three amine groups” (BASF SE, priority 2015, dated 2021).

The conditions of this series: at 25° C.

As for `CCC(CC)Nc1c([N+](=O)[O-])cc(C)c(C)c1[N+](=O)[O-]` [Pendimethalin, 3,4-dimethyl-2,6-dinitro-N-pentan-3-yl-aniline], the Vapor pressure result is given as “about 2 mPa”.
